Assays:
Assay type in all cases: in vivo
Veronica persica (VERPE) = assay: Post-emergence herbicidal action, greenhouse pot test; conditions: Veronica persica, 504 h, read-out: Post-emergence action against VERPE
Method in brief: (§1)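 Activity was scored by eye about 3 weeks after treatment against untreated plants, where 100% means dead plants and 0% means no difference. Plants at the one-leaf stage received a foliar spray of WP or EC formulations in water plus 0.5% additive (600 l/ha, up to 20 g/ha). Plants were grown in sandy loam pots in a greenhouse for 2–3 weeks before spraying.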

[1] = test system: Amaranthus retroflexus (AMARE); assay: as above; conditions: Amaranthus retroflexus, 504 h, rated visually after about 3 weeks vs untreated controls, 100% = plants have died
Method in brief: as §1

[2] = test system: Pharbitis purpurea (PHBPU); assay: as above; conditions: Ipomoea purpurea, 504 h, read-out: Post-emergence action against PHBPU in %
Method in brief: as §1

[3] = test system: Abutilon theophrasti (ABUTH); assay: as above; conditions: Abutilon theophrasti, 504 h, rated visually after about 3 weeks vs untreated controls, 100% = plants have died
Method in brief: as §1

Avena fatua (AVEFA) = assay: as above; conditions: Avena fatua, 504 h, 20 g/ha, rated visually after about 3 weeks vs untreated controls, 100% = plants have died, read-out: Post-emergence action at 20 g/ha against AVEFA in %
Method in brief: as §1

Viola tricolor (VIOTR) = assay: as above; conditions: Viola tricolor, 504 h, read-out: Post-emergence action against VIOTR
Method in brief: as §1

[4] = test system: Polygonum convolvulus (POLCO); assay: as above; conditions: Fallopia convolvulus, 504 h, read-out: Post-emergence action against POLCO in %
Method in brief: as §1

Lolium rigidum (LOLRI) = assay: as above; conditions: Lolium rigidum, 504 h, dosage 20 g/ha, read-out: Post-emergence action against LOLRI in %
Method in brief: as §1

[5] = test system: Pharbitis purpurea (PHBPU); assay: Pre-emergence herbicidal action, greenhouse pot test; conditions: scored after about 3 weeks
Source text: Seeds of monocotyledonous and dicotyledonous weed plants and crop plants were placed in plastic or organic planting pots and covered with soil. The compounds of the invention, formulated in the form of wettable powders (WP) or as emulsion concentrates (EC), were then applied to the surface of the covering soil as aqueous suspension or emulsion with addition of 0.5% additive at a water application rate equivalent to 600 l/ha (converted). After the treatment, the pots were placed in a greenhouse and kept under good growth conditions for the test plants. After about 3 weeks, the effect of the preparations was scored visually in comparison with untreated controls as percentages. For example, 100% activity=the plants have died, 0% activity=like control plants.
Tables B1 to B10 below show the effects of selected compounds of the general formula (I) according to Tables I.1 to I.33 on various harmful plants and at an application rate corresponding to 80 g/ha and less, which were obtained by the experimental method specified above. The appendices “a”, “b” and “c” give differentiation by different dosage with otherwise the same harmful plants tested.

COCCOC(=O)COc1ccccc1Oc1cc(-n2c(=O)cc(C(F)(F)F)n(C)c2=O)c(F)cc1Cl [I.7-1, 2-Methoxyethyl (2-{2-chloro-4-fluoro-5-[3-methyl-2,6-dioxo-4-(trifluoromethyl)-3,6-dihydropyrimidin-1(2H)-yl]phenoxy}phenoxy)acetate]
100%: pest or weed control at 1.25 g/ha (Veronica persica (VERPE); 1.25 g/ha) | pest or weed control at 5 g/ha (Veronica persica (VERPE); 5 g/ha) | pest or weed control at 20 g/ha (Veronica persica (VERPE); 20 g/ha) | pest or weed control at 1.25 g/ha ([1]; 1.25 g/ha, read-out: Post-emergence action at 1.25 g/ha against AMARE in %) | pest or weed control at 5 g/ha ([1]; 5 g/ha, read-out: Post-emergence action at 5 g/ha against AMARE in %) | pest or weed control at 20 g/ha ([1]; 20 g/ha, read-out: Post-emergence action at 20 g/ha against AMARE in %) | pest or weed control at 1.25 g/ha ([2]; dosage 1.25 g/ha) | pest or weed control at 5 g/ha ([2]; dosage 5 g/ha) | pest or weed control at 20 g/ha ([2]; dosage 20 g/ha) | pest or weed control at 5 g/ha ([3]; 5 g/ha, read-out: Post-emergence action at 5 g/ha against ABUTH in %) | pest or weed control at 20 g/ha ([3]; 20 g/ha, read-out: Post-emergence action at 20 g/ha against ABUTH in %) | pest or weed control at 1.25 g/ha (Viola tricolor (VIOTR); 1.25 g/ha) | pest or weed control at 5 g/ha (Viola tricolor (VIOTR); 5 g/ha) | pest or weed control at 20 g/ha (Viola tricolor (VIOTR); 20 g/ha) | pest or weed control at 20 g/ha ([4]; dosage 20 g/ha) | Pre-emergence action against PHBPU in % ([5]; 20 g/ha) | Pre-emergence action against PHBPU in % ([5]; 80 g/ha)
80%: pest or weed control at 20 g/ha (Avena fatua (AVEFA)) | pest or weed control at 5 g/ha ([4]; dosage 5 g/ha) | pest or weed control at 20 g/ha (Lolium rigidum (LOLRI))
